Values of other authors in patent US10925925B2, “Therapy of atherosclerosis, primary biliary cirrhosis and NRLP3 inflammasome-associated disease by HTCP inhibitors” (MYR GmbH, priority 2017, dated 2021).
Read-outs that look alike come from different tables or passages of the source.

What was measured:
patients with PBC [1] = conditions: month 12, placebo arm 10%
patients with PBC [2] = conditions: PBC patients treated with UDCA

CC[C@H]1[C@@H](O)[C@@H]2[C@H](CC[C@]3(C)[C@@H]([C@H](C)CCC(=O)O)CC[C@@H]23)[C@@]2(C)CC[C@@H](O)C[C@@H]12 [OCA, obeticholic acide]
patients achieving the primary endpoint (predominantly reduction in ALP) (patients with PBC [1]; OCA 10 mg arm): 47% | patients achieving the primary endpoint (predominantly reduction in ALP) (patients with PBC [1]; OCA titration arm): 46%

C[C@H](CCC(=O)O)[C@H]1CC[C@H]2[C@@H]3[C@@H](O)C[C@@H]4C[C@H](O)CC[C@]4(C)[C@H]3CC[C@]12C [UDCA, ursodeoxicholic acid]
patients who do not achieve adequate biochemical response (patients with PBC [2]): about 40%
